Results as given in US20260258420A1, “COMPOSITIONS AND METHODS FOR THE TREATMENT OF HUMAN PAPILLOMAVIRUS-DRIVEN CANCERS” (priority 2023, published 2026).

Columns and labels:
Format in all cases: cell-based
[1] = test system: 17 HPV-negative HNSCC and cervical squamous cancer cell lines; assay: High-throughput drug screen (HTDS), cell death by AOC_LD, HPV-negative cell lines; conditions: for HPV negative Resistant (number of cell lines): resistant = AOC_LD 0; for HPV negative Sensitive (number of cell lines): sensitive = AOC_LD greater than 0
Method: (§1) The concordance correlation coefficient was computed to assess the reproducibility of the normalized growth rates of the 2 replicates. […] A chi-square test was applied to compare drug classification and the cluster membership. The Fisher exact test was applied to compare mutations status (wild-type and mutant) and drugs' response data (sensitive and resistant).
(§2) The effects of 864 unique drugs from 51 classes was tested in 16 HPV-positive and 17 HPV-negative HNSCC and cervical squamous cancer cell lines (Table 2) that were characterized previously (Kaiu, et al., Oncotarget 2017; 8(49):86369-83).

[2] = test system: 16 HPV-positive HNSCC and cervical squamous cancer cell lines; assay: High-throughput drug screen (HTDS), cell death by AOC_LD, HPV-positive cell lines; conditions: for HPV positive Resistant (number of cell lines): resistant = AOC_LD 0; for HPV positive Sensitive (number of cell lines): sensitive = AOC_LD greater than 0
Method: as §1, §2

[3] = test system: 16 HPV-positive and 17 HPV-negative HNSCC and cervical squamous cancer cell lines; assay: High-throughput drug screen (HTDS), whole panel, comparison by HPV status; conditions: for odds ratio: sensitivity in HPV-positive vs HPV-negative cell lines; for efficacy in HPV-positive vs HPV-negative cell lines: AOC_LD as a dichotomous variable; for cell death: at concentrations known to inhibit mTOR
Method: as §1, §2

## O=C(Nc1c[nH]nc1-c1nc2ccc(CN3CCOCC3)cc2[nH]1)NC1CC1 [AT9283]
[1]
  HPV negative Resistant (number of cell lines): 10
  HPV negative Sensitive (number of cell lines): 7
[2]
  HPV positive Resistant (number of cell lines): 3
  HPV positive Sensitive (number of cell lines): 13

## COc1cc2c(c(OC)c1OC)-c1ccc(OC)c(=O)cc1[C@@H](NC(C)=O)CC2 [COLCHICINE]
[1]
  HPV negative Sensitive (number of cell lines): 10
[2]
  HPV positive Sensitive (number of cell lines): 15

## O=C(Nc1cccc(Nc2ncc(Br)c(NCCc3cnc[nH]3)n2)c1)N1CCCC1 [BX912]
[1]
  HPV negative Resistant (number of cell lines): 16
  HPV negative Sensitive (number of cell lines): 1
[2]
  HPV positive Resistant (number of cell lines): 8
  HPV positive Sensitive (number of cell lines): 8
[3]
  odds ratio: 14.66

## Nc1nc(F)nc2c1ncn2[C@@H]1O[C@H](CO)[C@@H](O)[C@@H]1O [FLUDARABINE]
[1]
  HPV negative Resistant (number of cell lines): 6
  HPV negative Sensitive (number of cell lines): 11
[2]
  HPV positive Resistant (number of cell lines): 13
  HPV positive Sensitive (number of cell lines): 3

## CC(=O)NCC(=O)N1[C@@H]2CC[C@H]1c1ccc(Nc3ncc(C(F)(F)F)c(NC4CCC4)n3)cc12 [PF03814735]
[1]
  HPV negative Resistant (number of cell lines): 15
  HPV negative Sensitive (number of cell lines): 2
[2]
  HPV positive Resistant (number of cell lines): 8
  HPV positive Sensitive (number of cell lines): 8
[3]
  efficacy in HPV-positive vs HPV-negative cell lines: tended to be more effective in HPV-positive cell lines
  odds ratio: 7.02

## CNC(=O)c1ccccc1Sc1ccc2c(/C=C/c3ccccn3)n[nH]c2c1 [AXITINIB]
[1]
  HPV negative Resistant (number of cell lines): 16
  HPV negative Sensitive (number of cell lines): 1
[2]
  HPV positive Resistant (number of cell lines): 8
  HPV positive Sensitive (number of cell lines): 8

## COc1cc(NS(C)(=O)=O)ccc1Nc1c2ccccc2nc2ccccc12 [AMSACRINE]
[1]
  HPV negative Resistant (number of cell lines): 15
  HPV negative Sensitive (number of cell lines): 2
[2]
  HPV positive Resistant (number of cell lines): 5
  HPV positive Sensitive (number of cell lines): 11

## COc1ccc(-c2ccc3c(N4CCOC[C@@H]4C)nc(N4CCOC[C@@H]4C)nc3n2)cc1CO [AZD8055]
[1]
  HPV negative Resistant (number of cell lines): 17
  HPV negative Sensitive (number of cell lines): 0
[2]
  HPV positive Resistant (number of cell lines): 11
  HPV positive Sensitive (number of cell lines): 5
[3]
  odds ratio: Inf

## CN(C)c1ccc(-c2nc3ncc(Cl)c(N4CCN(CC(=O)Nc5nccs5)CC4)c3[nH]2)cc1 [CCT129202]
[3]
  efficacy in HPV-positive vs HPV-negative cell lines: tended to be more effective in HPV-positive cell lines

## BLEOMYCIN
[1]
  HPV negative Resistant (number of cell lines): 13
  HPV negative Sensitive (number of cell lines): 4
[2]
  HPV positive Resistant (number of cell lines): 6
  HPV positive Sensitive (number of cell lines): 10
[3]
  odds ratio: 5.12

## Nc1nc(Nc2ccc(S(N)(=O)=O)cc2)nn1C(=O)c1c(F)cccc1F [JNJ7706621]
[1]
  HPV negative Resistant (number of cell lines): 11
  HPV negative Sensitive (number of cell lines): 6
[2]
  HPV positive Resistant (number of cell lines): 4
  HPV positive Sensitive (number of cell lines): 12
[3]
  efficacy in HPV-positive vs HPV-negative cell lines: more effective in HPV-positive than in HPV-negative cell lines

## CO[C@H]1C[C@@H]2CC[C@@H](C)[C@@](O)(O2)C(=O)C(=O)N2CCCC[C@H]2C(=O)O[C@H]([C@H](C)C[C@@H]2CC[C@@H](OP(C)(C)=O)[C@H](OC)C2)CC(=O)[C@H](C)/C=C(\C)[C@@H](O)[C@@H](OC)C(=O)[C@H](C)C[C@H](C)/C=C/C=C/C=C/1C [ridaforolimus]
[3]
  cell death: caused cell death only in a single cell line

## O=C(O)[C@]1(Cc2cccc(Nc3nccs3)n2)CC[C@@H](Oc2cccc(Cl)c2F)CC1 [MK5108]
[3]
  efficacy in HPV-positive vs HPV-negative cell lines: tended to be more effective in HPV-positive cell lines

## CCCCCCOC(=O)[C@]1(O)C[C@@H]2O[C@@]1(C)n1c3ccccc3c3c4c(c5c6ccccc6n2c5c31)C(=O)NC4 [KT5720]
[1]
  HPV negative Resistant (number of cell lines): 17
  HPV negative Sensitive (number of cell lines): 0
[2]
  HPV positive Resistant (number of cell lines): 12
  HPV positive Sensitive (number of cell lines): 4
[3]
  odds ratio: Inf

## CC(C)C[C@H](NC(=O)[C@H](CCc1ccccc1)NC(=O)CN1CCOCC1)C(=O)N[C@@H](Cc1ccccc1)C(=O)N[C@@H](CC(C)C)C(=O)[C@@]1(C)CO1 [CARFILZOMIB]
[1]
  HPV negative Resistant (number of cell lines): 5
  HPV negative Sensitive (number of cell lines): 12
[2]
  HPV positive Resistant (number of cell lines): 0
  HPV positive Sensitive (number of cell lines): 16
[3]
  odds ratio: Inf

## CO[C@H]1C[C@@H]2CC[C@@H](C)[C@@](O)(O2)C(=O)C(=O)N2CCCC[C@H]2C(=O)O[C@H]([C@H](C)C[C@@H]2CC[C@@H](OCCO)[C@H](OC)C2)CC(=O)[C@H](C)/C=C(\C)[C@@H](O)[C@@H](OC)C(=O)[C@H](C)C[C@H](C)/C=C/C=C/C=C/1C [everolimus]
[3]
  cell death: caused cell death only in a single cell line

## Cc1csc(-c2nnc(Nc3ccc(Oc4ncccc4-c4ccnc(N)n4)cc3)c3ccccc23)c1 [AMG900]
[3]
  efficacy in HPV-positive vs HPV-negative cell lines: tended to be more effective in HPV-positive cell lines

## COC(=O)c1ccc2c(c1)NC(=O)/C2=C(\Nc1ccc(N(C)C(=O)CN2CCN(C)CC2)cc1)c1ccccc1 [NINTEDANIB]
[1]
  HPV negative Resistant (number of cell lines): 17
  HPV negative Sensitive (number of cell lines): 0
[2]
  HPV positive Resistant (number of cell lines): 11
  HPV positive Sensitive (number of cell lines): 5
[3]
  odds ratio: Inf

## Clc1ccc(C2(c3ccc(-c4cn[nH]c4)cc3)CCNCC2)cc1 [AT7867]
[1]
  HPV negative Resistant (number of cell lines): 17
  HPV negative Sensitive (number of cell lines): 0
[2]
  HPV positive Resistant (number of cell lines): 12
  HPV positive Sensitive (number of cell lines): 4
[3]
  odds ratio: Inf

## CCc1cccc(CC)c1NC(=O)N1Cc2n[nH]c(NC(=O)c3ccc(N4CCN(C)CC4)cc3)c2C1 [PHA680632]
[3]
  efficacy in HPV-positive vs HPV-negative cell lines: tended to be more effective in HPV-positive cell lines

## O=C(Nc1cccc(Cl)c1)Nc1ncc(CCNc2ncnc3ccsc23)s1 [SNS314]
[1]
  HPV negative Resistant (number of cell lines): 15
  HPV negative Sensitive (number of cell lines): 2
[2]
  HPV positive Resistant (number of cell lines): 8
  HPV positive Sensitive (number of cell lines): 8
[3]
  efficacy in HPV-positive vs HPV-negative cell lines: tended to be more effective in HPV-positive cell lines

## Cc1nc(N)sc1-c1ccnc(Nc2ccc(N3CCOCC3)cc2)n1 [CYC116]
[1]
  HPV negative Resistant (number of cell lines): 15
  HPV negative Sensitive (number of cell lines): 2
[2]
  HPV positive Resistant (number of cell lines): 7
  HPV positive Sensitive (number of cell lines): 9
[3]
  efficacy in HPV-positive vs HPV-negative cell lines: tended to be more effective in HPV-positive cell lines

## WYE354
[1]
  HPV negative Resistant (number of cell lines): 16
  HPV negative Sensitive (number of cell lines): 1
[2]
  HPV positive Resistant (number of cell lines): 10
  HPV positive Sensitive (number of cell lines): 6
[3]
  odds ratio: 8.98

## Cc1cc(CN2CCN(c3c(Br)cnc4nc(-c5ccc(N6CCN(C)CC6)cc5)[nH]c34)CC2)no1 [CCT137690]
[3]
  efficacy in HPV-positive vs HPV-negative cell lines: tended to be more effective in HPV-positive cell lines

## COc1ccc([C@@H]2CC(=O)c3c(O)cc(O[C@@H]4O[C@H](CO[C@@H]5O[C@@H](C)[C@H](O)[C@@H](O)[C@H]5O)[C@@H](O)[C@H](O)[C@H]4O)cc3O2)cc1O [hesperidin]
[3]
  efficacy in HPV-positive vs HPV-negative cell lines: more effective in HPV-positive than in HPV-negative cell lines

## O=C(O)c1ccc(Nc2ncc3c(n2)-c2ccc(Cl)cc2C(c2c(F)cccc2F)=NC3)cc1 [MLN8054]
[3]
  efficacy in HPV-positive vs HPV-negative cell lines: tended to be more effective in HPV-positive cell lines

## CCS(=O)(=O)c1cccc(-c2cc(C(=O)NC3CCN(C)CC3)c(C)c3[nH]c4ncc(C)cc4c23)c1 [TAK901]
[3]
  efficacy in HPV-positive vs HPV-negative cell lines: tended to be more effective in HPV-positive cell lines

## CN1CCN(c2ccc3nc(-c4c(N)c5c(F)cccc5[nH]c4=O)[nH]c3c2)CC1 [DOVITINIB]
[1]
  HPV negative Resistant (number of cell lines): 16
  HPV negative Sensitive (number of cell lines): 1
[2]
  HPV positive Resistant (number of cell lines): 10
  HPV positive Sensitive (number of cell lines): 6

## CO[C@@H](C(=O)N1Cc2n[nH]c(NC(=O)c3ccc(N4CCN(C)CC4)cc3)c2C1)c1ccccc1 [danusertib]
[3]
  efficacy in HPV-positive vs HPV-negative cell lines: tended to be more effective in HPV-positive cell lines

## Cc1cc(Nc2cc(N3CCN(C)CC3)nc(Sc3ccc(NC(=O)C4CC4)cc3)n2)[nH]n1 [TOZASERTIB, tozasertib]
[1]
  HPV negative Resistant (number of cell lines): 15
  HPV negative Sensitive (number of cell lines): 2
[2]
  HPV positive Resistant (number of cell lines): 7
  HPV positive Sensitive (number of cell lines): 9
[3]
  efficacy in HPV-positive vs HPV-negative cell lines: tended to be more effective in HPV-positive cell lines

## COc1cc([C@@H]2c3cc4c(cc3[C@@H](O[C@@H]3O[C@@H]5CO[C@@H](C)O[C@H]5[C@H](O)[C@H]3O)[C@H]3COC(=O)[C@H]23)OCO4)cc(OC)c1O [ETOPOSIDE]
[1]
  HPV negative Resistant (number of cell lines): 15
  HPV negative Sensitive (number of cell lines): 2
[2]
  HPV positive Resistant (number of cell lines): 7
  HPV positive Sensitive (number of cell lines): 9

## COc1cc2c(Nc3ccc(NC(=O)c4ccccc4)cc3)ncnc2cc1OCCCN1CCOCC1 [ZM447439]
[1]
  HPV negative Resistant (number of cell lines): 14
  HPV negative Sensitive (number of cell lines): 3
[2]
  HPV positive Resistant (number of cell lines): 6
  HPV positive Sensitive (number of cell lines): 10
[3]
  efficacy in HPV-positive vs HPV-negative cell lines: tended to be more effective in HPV-positive cell lines
  odds ratio: 7.24

## CCn1cc(-c2ccnc3[nH]c(-c4cccc(CN(C)C)c4)cc23)c(-c2ccc(NC(=O)N(C)C)cc2)n1 [GSK1070916]
[1]
  HPV negative Resistant (number of cell lines): 12
  HPV negative Sensitive (number of cell lines): 5
[2]
  HPV positive Resistant (number of cell lines): 4
  HPV positive Sensitive (number of cell lines): 12
[3]
  efficacy in HPV-positive vs HPV-negative cell lines: tended to be more effective in HPV-positive cell lines
